Assay results as given in patent US20230399359A1, “TETRAPEPTIDES, COMPOSITIONS COMPRISING THEM, AND THEIR COSMETIC USE” (Sederma, priority 2020, published 2023).
Residues, ends and D or L forms follow the SMILES beside them. *: point of attachment. Palmitoyl = CCCCCCCCCCCCCCCC(=O)*

Key:
Assay type in all cases: cell-based
Decorine = assay: ELISA assay of decorin synthesis in normal human fibroblast culture supernatants; settings: NHF, 72 h contact, vs excipient control
Method: (§1) Normal human fibroblasts (NHF) in culture are brought into contact with the products to be tested or their excipient (negative control) for 72 h. At the end of the contact, the culture supernatants are removed, and the syntheses of the dermal macromolecules are estimated by ELISA assays. An estimate of cell viability is carried out by Hoechst assay to weight the obtained data.

Fibrillin 1 = assay: Immunofluorescence assay of Fibrillin 1 formation by normal human fibroblasts; settings: NHF, five-day incubation, coverage density by image analysis
Method: Normal human fibroblasts (NHF) are cultured for at least 24 hours in fibroblast growth medium containing serum. Once confluence was reached, the cells are seeded, and the actives and corresponding controls diluted in a culture medium are added. At the end of a five-day incubation period, the supernatant is removed, the cells are washed with PBS and fixed. The cells are then incubated with the primary Fibrillin 1 monoclonal antibody (11C1.3) (Thermo Fisher) diluted in blocking buffer at a concentration of 1:200. The cells are incubated. The primary antibody is removed, and the cells are washed with PBS. The secondary antibody was added at a dilution of 1:1000 in blocking buffer, then removed and the cells are washed with PBS. The formation of Fibrillin 1 by the cells is visualized using a fluorescence microscope. The obtained images are analyzed using an image processing software assigning a numerical value to the coverage density.

Collagen I (PIP) = assay: ELISA assay of collagen I synthesis (PIP assay) in normal human fibroblast culture supernatants; settings: NHF, 72 h contact, vs excipient control, weighted by Hoechst viability
Method: as §1
Collagen I is evaluated via the PIP assay (carboxy-terminal propeptide of procollagen type I) which is a peptide fragment resulting from the enzymatic degradation of procollagen when the latter is excreted outside the fibroblast (therefore in the culture medium where the assay is carried out).

Collagen IV = assay: ELISA assay of collagen IV synthesis in normal human fibroblast culture supernatants; settings: NHF, 72 h contact, vs excipient control
Method: as §1

Fibronectine = assay: ELISA assay of fibronectin synthesis in normal human fibroblast culture supernatants; settings: NHF, 72 h contact, vs excipient control
Method: as §1

Compound	Decorine (Decorine; concentrations of 5 to 15 ppm)	Fibrillin 1 (significance) (Fibrillin 1; 12.5 ppm)	Collagen I (PIP) (Collagen I (PIP); concentrations of 5 to 15 ppm)	Collagen IV (Collagen IV; concentrations of 5 to 15 ppm)	Fibronectine (Fibronectine; concentrations of 5 to 15 ppm)	Decorine (Decorine; concentrations of 2 to 3 ppm)	Fibrillin 1 (significance) (Fibrillin 1; 2 ppm)	Collagen I (PIP) (Collagen I (PIP); concentrations of 2 to 3 ppm)	Collagen IV (Collagen IV; concentrations of 2 to 3 ppm)	Fibronectine (Fibronectine; concentrations of 2 to 3 ppm)
CCCCCCCCCCCCCCCC(=O)N[C@@H](C)C(=O)N[C@H](C(=O)N1CCC[C@H]1C(=O)NCC(=O)O)C(C)C [Pal-AVPG-OH, palmitoyl-alanyl-valyl-prolyl-glycine] (Palmitoyl-AVPG-OH)	+20%	+121% (p < 0.05)	+94%	+35%	+38%					
Pal-VPGA-OH: N-palmitoyl tetrapeptide Val-Pro-Gly-Ala with free C-terminal acid, prepared by the same synthetic process (Palmitoyl-VPGA-OH; SMILES CCCCCCCCCCCCCCCC(=O)N[C@H](C(=O)N1CCC[C@H]1C(=O)NCC(=O)N[C@@H](C)C(=O)O)C(C)C)						+69%	+92% (p < 0.05)	+42%	+49%	+115%
